Laboratory results as given in patent US9505774B2, “Polymorphic forms of icotinib maleate and uses thereof” (BETTA PHARMACEUTICALS CO., LTD., priority 2013, dated 2016).
Counter-ions that a name gives are not always drawn.

Experiment: Pharmacokinetic study of Icotinib hydrochloride and Polymorph Form II of Icotinib maleate, oral suspension, plasma by HPLC
Format: in vivo
Settings: Sprague-Dawley (SD), rat, fasted male SD rats, oral suspension in sodium carboxymethyl cellulose, dose equivalent to 35 mg/kg Icotinib; for AUC(0-t): read-out: AUC(0-24)
Text: Drugs and reagents: the Icotinib hydrochloride used in this study was of Crystalline Form I disclosed by the WO2010/003313. Polymorph Form II of Icotinib maleate and Icotinib hydrochloride were ground to fine particles. The material content (purity) was not less than 99.0%. Sodium carboxymethyl cellulose was medical supply graded.
Experimental animals: SD rats were divided to an Icotinib hydrochloride group and a Polymorph Form II group, with both groups consisting of males.
Pharmaceutical preparation: the amount of each compound was weighed and then sodium carboxymethyl cellulose was added to result in the test compound's concentration of 0.5%. The solid mixture was then added to prepare a suspension thereof at a final concentration of […] in water.
Administration and sample collection: each suspension was administered orally to fasted SD rats at a dose equivalent to 35 mg/kg Icotinib in a dose volume of 5 ml/kg. 0.4 ml of blood was collected in EDTA-K pre anticoagulant tubes at time intervals of 0.5, 1, 1.5, 2, 4, 6, 8 and 24 hrs after the administration of the test compound, centrifuged at 3000 rpm for 10 minutes, and 120 μl plasma was collected and kept in cold storage.
Samples were analyzed by high performance liquid chromatography. The chromatographic conditions utilized C18-silane bonded silica as stationary phase, 0.02 mol/L of sodium dihydrogen phosphate in acetonitrile (40:60, using sodium hydroxide solution to adjust pH to 5.0) as the mobile phase and a detection wavelength of 334 nm. PK profile comparison of Polymorph Form II of Icotinib maleate and Crystalline Form I of Icotinib hydrochloride was summarized in Table 1 and FIG. 3.

Question: Which AUC(0-inf) does the source give for `C#Cc1cccc(Nc2ncnc3cc4c(cc23)OCCOCCOCCO4)c1.O=C(O)/C=C\C(=O)O` [Form II, Icotinib maleate] here?
Answer: 65400 ng·h/mL

Question: And the Cmax?
Answer: 7530 ng/mL

Question: What about the Tmax of the same compound?
Answer: 5.33 h

Question: And the half-life?
Answer: 3.06 h

Question: And the AUC(0-t)?
Answer: 64800 ng·h/mL

Question: With `C#Cc1cccc(Nc2ncnc3cc4c(cc23)OCCOCCOCCO4)c1` [Icotinib hydrochloride] as the compound, how does the AUC(0-inf) read?
Answer: 19100 ng·h/mL

Question: And the Cmax?
Answer: 3360 ng/mL

Question: And the Tmax?
Answer: 2.33 h

Question: And the half-life?
Answer: 2.94 h

Question: And the AUC(0-t)?
Answer: 19000 ng·h/mL
